The values below come from PMC12134935, “Scientific hypothesis generation by large language models: laboratory validation in breast cancer treatment” (Journal of the Royal Society Interface, 2025).

pIC50: −log10 of the molar value. Entries after “also recorded” stand apart in the source; their conditions may differ. Like-named read-outs stand apart in the source and are kept apart here. Where only a bound is given, the exact number is not on record here.

As a reminder, the pIC50 is −log10 of the IC50, conventionally taken in molar units.

Format in all cases: cell-based
Test [1] concerns MCF7. Kind of test: Single drug treatments, viability/toxicity. The conditions noted are these: for toxicity towards MCF7: doses up to 25 µM.
Test [2] deals with MCF10A. Kind of test: Single drug treatments, viability/toxicity. The following applies: Homo sapiens, MCF-10A, read-out: MCF10A IC50. An excerpt: (§1) In our experiments, breast cancer cells were exemplified by MCF7 (an epithelial breast cancer cell line); non-tumorigenic breast cells were exemplified by the epithelial cell line MCF10A. We provided GPT4 with a prompt that had several aims:
(§2) In an additional experiment, 12 drugs were retested from the first round (n ≥ 3 replicates). An ANOVA two-way test with three replicates was used to calculate the significance of changes to viability compared with the internal control drug allopurinol for both cell lines (electronic supplementary material, figures S6 and S7). Two of the retested drugs were initially used as positive controls for MCF7 (doxorubicin and fulvestrant).

In test [3] the test system is MCF7. The experiment in a line: Single drug treatments, viability/toxicity. The conditions noted are these: for pIC50: Homo sapiens, MCF7, retest of drugs from first round, n ≥ 3 replicates, MCF7; for reduction of viability of MCF7: two-way ANOVA vs allopurinol, concentrations up to 3.84 µM.
Source text: as §1, §2

The test system of test [4] is MCF7 versus MCF10A. The experiment in a line: Single drug specificity towards MCF7 compared with MCF10A. The following applies: first round, MCF7 versus MCF10A viability.
The mark [5] stands for this setting: Homo sapiens, MCF7, single drug, first round, maximum dose 25 µM, read-out: MCF7 IC50.
The mark [6] stands for this setting: single drug, first round, maximum dose 25 µM.
[7] abbreviates: Homo sapiens, MCF7, read-out: MCF7 IC50.

Regarding `CC(=O)c1c(C)c2cnc(Nc3ccc(N4CCNCC4)cn3)nc2n(C2CCCC2)c1=O` [palbociclib], the pIC50 in test [1] (setting [5]) and in test [2] (setting [6]) was less than 4.60 throughout.
For the compound `Cc1ncc([N+](=O)[O-])n1CCO` [metronidazole], the pIC50 in test [1] (setting [5]) and in test [2] (setting [6]) was less than 4.60 in each case.
For `O=C(O)COCCN1CCN(C(c2ccccc2)c2ccc(Cl)cc2)CC1` (stereo not drawn) [cetirizine], the pIC50 in test [1] (setting [5]) and in test [2] (setting [6]) was less than 4.60 throughout.
For the compound `CN/C(=N/CCSCc1nc[nH]c1C)NC#N` [cimetidine], the pIC50 in test [1] (setting [5]) and in test [2] (setting [6]) was less than 4.60 in each case. Besides, the “toxicity towards MCF7” value in test [1] (single drug, first round) is given as “showed toxicity towards MCF7”.
As for `O=C(Nc1ccc([N+](=O)[O-])cc1Cl)c1cc(Cl)ccc1O` [niclosamide], the results for the pIC50 in test [1] (setting [5]), in test [3] and in test [2] (setting [6]) were 6.16, 5.91 and 7.21, respectively. Besides, the “toxicity towards MCF7” value in test [1] (single drug, first round) was “comparatively high toxicity; also recorded: showed toxicity towards MCF7”. For the same compound, the “reduction of viability of MCF7” value in test [3] (retest n ≥ 3) was “significantly reduced the viability of MCF7”.
Take `Oc1ncnc2[nH]ncc12` [allopurinol]: the pIC50 in test [1] (setting [5]) and in test [2] (setting [6]) was less than 4.60 in each case.
`C[C@H]1O[C@H](O[C@H]2[C@H](O)[C@@H](O)[C@@H](O[C@H]3[C@H](O)[C@@H](O)C(O)O[C@@H]3CO)O[C@@H]2CO)[C@H](O)[C@@H](O)[C@@H]1N[C@H]1C=C(CO)[C@@H](O)[C@H](O)[C@H]1O` (stereo partly drawn) [acarbose]: the pIC50 in test [1] (setting [5]) and in test [2] (setting [6]) was less than 4.60 throughout.
`COC(=O)Nc1nc2ccc(C(=O)c3ccccc3)cc2[nH]1` [mebendazole]: the results for the negative-log IC50 (pIC50) in test [1] (setting [5]) and in test [2] (setting [6]) were less than 4.60 and 4.82, respectively. Moreover, the “toxicity towards MCF7” value in test [1] (single drug, first round) was “showed toxicity towards MCF7”. Besides, the “specificity towards MCF7” value in test [4] is on record as “high specificity towards MCF7”.
Regarding `NS(=O)(=O)c1cc(C(=O)O)c(NCc2ccco2)cc1Cl` [furosemide], the pIC50 in test [1] (setting [5]) and in test [2] (setting [6]) was less than 4.60 throughout.
Regarding `C[C@]12CC[C@@H]3c4ccc(O)cc4C[C@@H](CCCCCCCCC[S+]([O-])CCCC(F)(F)C(F)(F)F)[C@H]3[C@@H]1CC[C@@H]2O` (stereo partly drawn) [fulvestrant], the pIC50 in test [1] (setting [5]) and in test [2] (setting [6]) was less than 4.60 each time. For the same compound, the “specificity towards MCF7” value in test [4] is given as “showed preference for MCF7”. Also, in test [3] (retest n ≥ 3), the “reduction of viability of MCF7” value is “also targeted MCF7”.
Regarding `CC12CC3CC(C)(C1)CC(N)(C3)C2` [memantine], the pIC50 in test [1] (setting [5]) and in test [2] (setting [6]) was less than 4.60 throughout.
For `CCC(C)n1ncn(-c2ccc(N3CCN(c4ccc(OCC5COC(Cn6cncn6)(c6ccc(Cl)cc6Cl)O5)cc4)CC3)cc2)c1=O` (stereo not drawn) [itraconazole], the pIC50 in test [1] (setting [5]) and in test [2] (setting [6]) was less than 4.60 throughout. Further, the “toxicity towards MCF7” value in test [1] (single drug, first round) was “showed toxicity towards MCF7”.
Consider `CCN(CCO)CCCC(C)Nc1ccnc2cc(Cl)ccc12` (stereo not drawn) [hydroxychloroquine], for which the pIC50 in test [1] (setting [5]) and in test [2] (setting [6]) was less than 4.60 in each case. For the same compound, the “toxicity towards MCF7” value in test [1] (single drug, first round) is reported as “showed toxicity towards MCF7”. In addition, the “toxicity to MCF7” value in test [3] (retest n ≥ 3, hydroxychloroquine statement at 25 µM) was “persistent and substantial”.
`CCC(C)(C)C(=O)O[C@H]1C[C@@H](C)C=C2C=C[C@H](C)[C@H](CC[C@@H]3C[C@@H](O)CC(=O)O3)[C@H]21` [simvastatin]: the pIC50 in test [1] (setting [5]) is 5.25; in test [2] (setting [6]), 5.14. Besides, the “toxicity towards MCF7” value in test [1] (single drug, first round) was “showed toxicity towards MCF7”.
In the case of `CCN(CC)CCCC(C)Nc1ccnc2cc(Cl)ccc12` (stereo not drawn) [chloroquine], the pIC50 in test [1] (Homo sapiens, MCF7) was 4.97; in test [1] (setting [7]) it was less than 4.60; in test [2], less than 4.60. The “toxicity towards MCF7” value in test [1] (single drug, first round) was “showed toxicity towards MCF7”.
On to `CCN(CC)C(=S)SSC(=S)N(CC)CC` [disulfiram], for which the pIC50 in test [1] (setting [5]) was 6.69; in test [3] it was 7.23; in test [2] (setting [6]) it was less than 4.60. Also, the “specificity towards MCF7” value in test [4] is reported as “high specificity towards MCF7”.
For the compound `CCCc1nn(C)c2c(=O)[nH]c(-c3cc(S(=O)(=O)N4CCN(C)CC4)ccc3OCC)nc12` [sildenafil], the pIC50 in test [1] (setting [5]) and in test [2] (setting [6]) was less than 4.60 throughout. In test [1] (single drug, first round), the “toxicity towards MCF7” value was “showed toxicity towards MCF7”.
On to `OCCN(CCO)c1nc(N2CCCCC2)c2nc(N(CCO)CCO)nc(N3CCCCC3)c2n1` [dipyridamole], for which the pIC50 in test [1] (setting [5]) and in test [2] (setting [6]) was less than 4.60 throughout. For the same compound, in test [4], the “specificity towards MCF7” value is given as “high specificity towards MCF7”. Besides, the “reduction of viability of MCF7” value in test [3] (retest n ≥ 3) is on record as “significantly reduced the viability of MCF7”.
Turning to `COc1cccc2c1C(=O)c1c(O)c3c(c(O)c1C2=O)C[C@@](O)(C(=O)CO)C[C@@H]3O[C@H]1C[C@H](N)[C@H](O)[C@H](C)O1` [doxorubicin], the pIC50 in test [1] (single drug, first round, maximum dose 25 µM, read-out: MCF7 IC50) is greater than 4.60; in test [3], 6.52. For the same compound, the “reduction of viability of MCF7” value in test [3] (retest n ≥ 3) is “also targeted MCF7”.
In the case of `COc1ccc2[nH]c([S+]([O-])Cc3ncc(C)c(OC)c3C)nc2c1` (stereo not drawn) [omeprazole], the pIC50 in test [1] (setting [5]) and in test [2] (setting [6]) was less than 4.60 in each case.
Regarding `O=P1(N(CCCl)CCCl)NCCCO1` (stereo not drawn) [cyclophosphamide], the pIC50 in test [1] (setting [7]) and in test [2] was less than 4.60 throughout.
Take `CC(C)NCC(O)COc1ccc(CC(N)=O)cc1` (stereo not drawn) [atenolol]: the pIC50 in test [1] (setting [5]) and in test [2] (setting [6]) was less than 4.60 throughout.
As for `CCN(CC)CCCC(C)Nc1c2ccc(Cl)cc2nc2ccc(OC)cc12` (stereo not drawn) [quinacrine], the pIC50 is 5.41 in test [1] (setting [5]), 5.33 in test [3] and 4.99 in test [2] (setting [6]). In test [1] (single drug, first round), the “toxicity towards MCF7” value is given as “showed toxicity towards MCF7”. Besides, the “specificity towards MCF7” value in test [4] was “high specificity towards MCF7”. Besides, the “reduction of viability of MCF7” value in test [3] (retest n ≥ 3) was “significantly reduced the viability of MCF7”.
Take `CC(C)c1c(C(=O)Nc2ccccc2)c(-c2ccccc2)c(-c2ccc(F)cc2)n1CC[C@@H](O)C[C@@H](O)CC(=O)O` [atorvastatin]: the pIC50 in test [1] (setting [5]) was less than 4.60; in test [2] (setting [6]), 5.42.
Turning to `Cc1ccc(-c2cc(C(F)(F)F)nn2-c2ccc(S(N)(=O)=O)cc2)cc1` [celecoxib], the results for the pIC50 in test [1] (setting [5]) and in test [2] (setting [6]) were 5.27 and 4.65, respectively. The “toxicity towards MCF7” value in test [1] (single drug, first round) was “showed toxicity towards MCF7”.
